Source: ChEMBL document CHEMBL3525969 (Drug Metab Dispos, 2011)

Assays:
CYP3A4 [1] = target: T1, CYP3A4 (Homo sapiens, UniProt P08684); experiment: Ratio of Kinact to Ki for CYP3A4 (unknown origin); format: ADME
CYP3A5 [2] = target: T2, CYP3A5 (Homo sapiens, UniProt P20815); experiment: Inhibition of human His-tagged CYP3A5 expressed in Escherichia coli TOPP3 using BFC as substrate assessed as residual activity by fluorescence assay in presence of cytochrome b5; format: ADME; settings: probe BFC
T2 sequence (P20815 whole entry): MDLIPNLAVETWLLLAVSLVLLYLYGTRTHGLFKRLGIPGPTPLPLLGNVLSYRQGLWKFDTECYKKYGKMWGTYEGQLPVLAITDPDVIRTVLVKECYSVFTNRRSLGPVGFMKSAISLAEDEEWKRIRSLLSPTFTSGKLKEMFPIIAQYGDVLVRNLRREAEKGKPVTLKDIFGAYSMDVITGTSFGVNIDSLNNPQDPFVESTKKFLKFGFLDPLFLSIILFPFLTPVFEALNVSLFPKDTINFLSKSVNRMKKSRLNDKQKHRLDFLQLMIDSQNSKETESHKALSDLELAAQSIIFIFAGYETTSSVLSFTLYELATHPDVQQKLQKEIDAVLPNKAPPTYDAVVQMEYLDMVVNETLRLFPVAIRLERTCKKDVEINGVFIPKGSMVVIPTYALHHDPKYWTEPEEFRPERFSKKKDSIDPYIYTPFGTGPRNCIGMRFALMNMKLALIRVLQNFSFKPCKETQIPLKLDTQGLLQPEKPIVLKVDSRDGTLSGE

Cytochrome P450 3A4 [3] = target: T3, Cytochrome P450 3A4 (Homo sapiens, UniProt P08684); experiment: Inhibition of His-tagged CYP3A4 (unknown origin) expressed in Escherichia coli TOPP3 using BFC as substrate after 15 mins by fluorescence assay in presence of NADPH; format: ADME; settings: 0.25 h
T3 sequence (P08684 whole entry): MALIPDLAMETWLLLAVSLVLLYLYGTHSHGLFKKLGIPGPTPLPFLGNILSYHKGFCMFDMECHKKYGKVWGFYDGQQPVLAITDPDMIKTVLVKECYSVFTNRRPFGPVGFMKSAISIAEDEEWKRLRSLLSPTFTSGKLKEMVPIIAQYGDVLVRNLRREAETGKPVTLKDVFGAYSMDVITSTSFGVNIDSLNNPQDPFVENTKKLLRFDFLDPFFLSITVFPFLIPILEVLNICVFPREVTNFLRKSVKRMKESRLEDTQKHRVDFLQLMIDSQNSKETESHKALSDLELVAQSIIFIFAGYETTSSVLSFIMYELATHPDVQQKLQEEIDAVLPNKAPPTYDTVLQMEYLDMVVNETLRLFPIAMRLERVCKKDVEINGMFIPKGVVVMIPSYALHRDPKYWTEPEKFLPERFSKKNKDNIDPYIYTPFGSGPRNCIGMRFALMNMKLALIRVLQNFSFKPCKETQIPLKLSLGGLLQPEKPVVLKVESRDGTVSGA

Cytochrome P450 3A4 [4] = target: T3, Cytochrome P450 3A4; experiment: Inhibition of His-tagged CYP3A4 (unknown origin) expressed in Escherichia coli TOPP3 using BFC as substrate after 15 mins by fluorescence assay in presence of NADPH and cytochrome b5; format: ADME; settings: 0.25 h
[5] = Cmax in human; format: ADME, organism-based; settings: in vivo
Cytochrome P450 2B6 [6] = target: T4, Cytochrome P450 2B6 (Homo sapiens, UniProt P20813); experiment: Inhibition of human His-tagged CYP2B6 expressed in Escherichia coli TOPP3 using 7-ethoxy-4-(trifluoromethyl)coumarin as substrate after 15 mins by fluorescence assay in presence of NADPH; format: ADME; settings: 0.25 h
T4 sequence (P20813 whole entry): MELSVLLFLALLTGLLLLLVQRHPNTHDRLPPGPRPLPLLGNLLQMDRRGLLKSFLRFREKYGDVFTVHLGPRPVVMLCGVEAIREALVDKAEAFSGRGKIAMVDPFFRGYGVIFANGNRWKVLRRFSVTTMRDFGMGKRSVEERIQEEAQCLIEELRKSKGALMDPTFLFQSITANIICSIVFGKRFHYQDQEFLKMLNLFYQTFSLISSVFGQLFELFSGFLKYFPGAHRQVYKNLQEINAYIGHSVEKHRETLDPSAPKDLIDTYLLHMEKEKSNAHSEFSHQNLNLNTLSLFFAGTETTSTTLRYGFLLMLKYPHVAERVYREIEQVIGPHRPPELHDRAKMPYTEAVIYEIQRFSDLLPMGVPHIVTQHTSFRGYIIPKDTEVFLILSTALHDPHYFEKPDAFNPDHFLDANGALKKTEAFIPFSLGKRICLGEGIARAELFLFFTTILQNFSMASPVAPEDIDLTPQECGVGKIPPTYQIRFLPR

Cytochrome P450 2B6 [7] = target: T4, Cytochrome P450 2B6; experiment: Inhibition of human His-tagged CYP2B6 expressed in Escherichia coli TOPP3 using 7-ethoxy-4-(trifluoromethyl)coumarin as substrate after 15 mins by fluorescence assay in presence of NADPH and cytochrome b5; format: ADME; settings: 0.25 h
Cytochrome P450 2D6 [8] = target: T5, Cytochrome P450 2D6 (Homo sapiens, UniProt P10635); experiment: Inhibition of human His-tagged CYP2D6 expressed in Escherichia coli TOPP3 using 7-ethoxy-4-(trifluoromethyl)coumarin as substrate after 15 mins by fluorescence assay in presence of NADPH; format: ADME; settings: 0.25 h
T5 sequence (P10635 whole entry): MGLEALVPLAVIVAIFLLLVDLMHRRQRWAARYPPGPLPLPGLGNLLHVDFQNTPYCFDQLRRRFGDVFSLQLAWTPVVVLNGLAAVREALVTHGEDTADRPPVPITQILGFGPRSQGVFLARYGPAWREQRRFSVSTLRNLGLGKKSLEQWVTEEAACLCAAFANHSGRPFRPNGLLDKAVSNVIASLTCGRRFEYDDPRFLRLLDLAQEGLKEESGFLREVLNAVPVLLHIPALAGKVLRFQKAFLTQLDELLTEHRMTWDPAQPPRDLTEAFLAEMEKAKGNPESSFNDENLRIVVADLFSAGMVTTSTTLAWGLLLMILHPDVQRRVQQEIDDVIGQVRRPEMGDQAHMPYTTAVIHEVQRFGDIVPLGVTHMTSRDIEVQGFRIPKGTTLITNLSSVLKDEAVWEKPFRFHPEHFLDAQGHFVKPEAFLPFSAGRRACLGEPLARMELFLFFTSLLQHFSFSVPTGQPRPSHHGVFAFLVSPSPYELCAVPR

Cytochrome P450 2D6 [9] = target: T5, Cytochrome P450 2D6; experiment: Inhibition of human His-tagged CYP2D6 expressed in Escherichia coli TOPP3 using 7-ethoxy-4-(trifluoromethyl)coumarin as substrate after 15 mins by fluorescence assay in presence of NADPH and cytochrome b5; format: ADME; settings: 0.25 h
Cytochrome P450 3A5 [10] = target: T6, Cytochrome P450 3A5 (Homo sapiens, UniProt P20815); experiment: Inhibition of human His-tagged CYP3A5 expressed in Escherichia coli TOPP3 using BFC as substrate after 15 mins by fluorescence assay in presence of NADPH; format: ADME; settings: 0.25 h
T6 sequence (P20815 whole entry): as the sequence (P20815 whole entry) above

Cytochrome P450 3A5 [11] = target: T6, Cytochrome P450 3A5; experiment: Inhibition of human His-tagged CYP3A5 expressed in Escherichia coli TOPP3 using BFC as substrate after 15 mins by fluorescence assay in presence of NADPH and cytochrome b5; format: ADME; settings: 0.25 h
Cytochrome P450 3A4 [12] = target: T3, Cytochrome P450 3A4; experiment: Inhibition of human His-tagged CYP3A4 expressed in Escherichia coli TOPP3 using BFC as substrate after 15 mins by fluorescence assay in presence of NADPH and cytochrome b5; format: ADME; settings: 0.25 h
Cytochrome P450 3A4 [13] = target: T3, Cytochrome P450 3A4; experiment: Inhibition of human His-tagged CYP3A4 expressed in Escherichia coli TOPP3 using BFC as substrate at 10 to 100 uM by fluorescence assay in presence of NADPH and cytochrome b5; format: ADME; settings: TDE = time-dependent effect
CYP3A4 [14] = target: T1, CYP3A4; experiment: Inhibition of human His-tagged CYP3A4 expressed in Escherichia coli TOPP3 using BFC as substrate at 100 uM after 30 mins in presence of NADPH and cytochrome b5; format: ADME; settings: probe BFC
CYP3A4 [15] = target: T1, CYP3A4; experiment: Inhibition of human His-tagged CYP3A4 expressed in Escherichia coli TOPP3 using BFC as substrate at 100 uM after 30 mins by spectrophotometry in presence of NADPH and cytochrome b5 relative to control; format: ADME; settings: probe BFC
Cytochrome P450 3A4 [16] = target: T3, Cytochrome P450 3A4; experiment: Inhibition of human His-tagged CYP3A4 expressed in Escherichia coli TOPP3 using BFC as substrate assessed as unmodified heme at 100 uM after 30 mins by HPLC analysis in presence of NADPH and cytochrome b5; format: ADME; settings: 0.5 h
CYP3A4 [17] = target: T1, CYP3A4; experiment: Inhibition of human His-tagged CYP3A4 expressed in Escherichia coli TOPP3 using BFC as substrate assessed as residual activity by fluorescence assay in presence of cytochrome b5; format: ADME; settings: probe BFC
CYP3A4 [18] = target: T1, CYP3A4; experiment: Inhibition of human His-tagged CYP3A4 expressed in Escherichia coli TOPP3 using BFC as substrate assessed as residual activity after 10 mins by fluorescence assay in presence of NADPH and cytochrome b5 relative to control; format: ADME; settings: probe BFC, read-out: Activity
CYP3A4 [19] = target: T1, CYP3A4; experiment: Inhibition of human His-tagged CYP3A4 expressed in Escherichia coli TOPP3 using BFC as substrate assessed as residual activity after 20 mins by fluorescence assay in presence of NADPH and cytochrome b5 relative to control; format: ADME; settings: probe BFC, read-out: Activity
CYP3A4 [20] = target: T1, CYP3A4; experiment: Inhibition of human His-tagged CYP3A4 expressed in Escherichia coli TOPP3 using BFC as substrate assessed as residual activity after 30 mins by fluorescence assay in presence of NADPH and cytochrome b5 relative to control; format: ADME; settings: probe BFC, read-out: Activity
CYP3A5 [21] = target: T2, CYP3A5; experiment: Inhibition of human His-tagged CYP3A5 expressed in Escherichia coli TOPP3 using BFC as substrate assessed as residual activity after 10 mins by fluorescence assay in presence of NADPH and cytochrome b5 relative to control; format: ADME; settings: probe BFC, read-out: Activity
CYP3A5 [22] = target: T2, CYP3A5; experiment: Inhibition of human His-tagged CYP3A5 expressed in Escherichia coli TOPP3 using BFC as substrate assessed as residual activity after 20 mins by fluorescence assay in presence of NADPH and cytochrome b5 relative to control; format: ADME; settings: probe BFC, read-out: Activity
CYP3A5 [23] = target: T2, CYP3A5; experiment: Inhibition of human His-tagged CYP3A5 expressed in Escherichia coli TOPP3 using BFC as substrate assessed as residual activity after 30 mins by fluorescence assay in presence of NADPH and cytochrome b5 relative to control; format: ADME; settings: probe BFC, read-out: Activity
Cytochrome P450 3A4 [24] = target: T3, Cytochrome P450 3A4; experiment: Inhibition of human His-tagged CYP3A4 expressed in Escherichia coli TOPP3 using BFC as substrate at 100 uM after 30 mins by spectrophotometry in presence of cytochrome b5; format: ADME; settings: 0.5 h

T1 sequence (P08684 whole entry): as the sequence (P08684 whole entry) above

CC(C)=CCC/C(C)=C/COc1c2ccoc2cc2oc(=O)ccc12 [BERGAMOTTIN]
kinact/KI (CYP3A4 [1]): 667 M⁻¹ s⁻¹

C#C[C@]1(O)CC[C@H]2[C@@H]3CCc4cc(O)ccc4[C@H]3CC[C@@]21C [ETHINYL ESTRADIOL]
kinact/KI (CYP3A4 [1]): 667 M⁻¹ s⁻¹

CC#C[C@]1(O)CC[C@H]2[C@@H]3CCC4=CC(=O)CCC4=C3[C@@H](c3ccc(N(C)C)cc3)C[C@@]21C [MIFEPRISTONE]
kinact/KI (CYP3A4 [1]): 333 M⁻¹ s⁻¹

O=C(Nc1ccc(OC(F)(F)F)cc1)c1sccc1NCc1ccnc2ccccc12 [OSI-930]
activity (CYP3A5 [2]): 100% | inhibition (INH) (Cytochrome P450 3A4 [3]): Active | inhibition (INH) (Cytochrome P450 3A4 [4]): Active | Cmax [5]: 1700 nM | inhibition (INH) (Cytochrome P450 2B6 [6]): Not Active | inhibition (INH) (Cytochrome P450 2B6 [7]): Not Active | inhibition (INH) (Cytochrome P450 2D6 [8]): Not Active | inhibition (INH) (Cytochrome P450 2D6 [9]): Not Active | inhibition (INH) (Cytochrome P450 3A5 [10]): Not Active | inhibition (INH) (Cytochrome P450 3A5 [11]): Not Active | inhibition (INH) (Cytochrome P450 3A4 [12]): Dose-dependent effect | inhibition (INH) (Cytochrome P450 3A4 [13]): tde | inhibition at 0.5 h, 100 µM (CYP3A4 [14]): 75% | inhibition at 0.5 h, 100 µM (CYP3A4 [15]): 70% | inhibition (INH) (Cytochrome P450 3A4 [16]): Active | activity (CYP3A4 [17]): 100% | activity at 10 min (CYP3A4 [18]): 71% | activity at 20 min (CYP3A4 [19]): 50% | activity at 0.5 h (CYP3A4 [20]): 39% | activity at 10 min (CYP3A5 [21]): 113% | activity at 20 min (CYP3A5 [22]): 109% | activity at 0.5 h (CYP3A5 [23]): 98% | inhibition (INH) (Cytochrome P450 3A4 [24]): Not Active

CC/C(=C(\c1ccccc1)c1ccc(OCCN(C)C)cc1)c1ccccc1 [TAMOXIFEN]
kinact/KI (CYP3A4 [1]): 333 M⁻¹ s⁻¹
